# Assay results: ChEMBL document CHEMBL1201862, “PubChem BioAssay data set” (2004)
#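 Exposure lasted 48 hours, with cells grown in 96-well plates and compounds tested at five concentrations. GI50 = concentration required for 50% inhibition of growth.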 Activity calls are given as the source filed them. No stated cut-off is given here; in the data, active = GI50 up to about 1.1 µM and inactive = higher.
# Legend:
# Test in all cases: DTP human tumour cell line panel, 48 h
# ACHN = test system: ACHN
# HL-60 = test system: HL-60
# RXF 393 = test system: RXF 393
# MCF7 = test system: MCF7
# EKVX = test system: EKVX
# HCC 2998 = test system: HCC 2998
# PC-3 = test system: PC-3
# HCT-15 = test system: HCT-15
# K562 = test system: K562
# DMS-273 = test system: DMS-273
# NCI-H23 = test system: NCI-H23
# CCRF-CEM = test system: CCRF-CEM
# SK-MEL-5 = test system: SK-MEL-5
# HT-29 = test system: HT-29
# SNB-75 = test system: SNB-75
# MOLT-4 = test system: MOLT-4
# COLO 205 = test system: COLO 205
# 786-0 = test system: 786-0
# BT-549 = test system: BT-549
# HOP-92 = test system: HOP-92
SMILES,GI50 (ACHN),GI50 (HL-60),GI50 (RXF 393),GI50 (MCF7),GI50 (EKVX),GI50 (HCC 2998),GI50 (PC-3),GI50 (HCT-15),GI50 (K562),GI50 (DMS-273),GI50 (NCI-H23),GI50 (CCRF-CEM),GI50 (SK-MEL-5),GI50 (HT-29),GI50 (SNB-75),GI50 (MOLT-4),GI50 (COLO 205),GI50 (786-0),GI50 (BT-549),GI50 (HOP-92)
COc1ccc(CC2C(=O)NC(C)C(=O)N(C)C3Cc4ccc(cc4)Oc4cc(ccc4O)CC(C(=O)NC(C)C(=O)NC(C)C(=O)N2C)N(C)C3=O)cc1 (centres undefined),73.8 nM (active),17.5 nM (active),17.5 nM (active),17.5 nM (active),17.5 nM (active),17.5 nM (active),< 0.1 nM (active),851 nM,17.5 nM (active),17.5 nM (active),17.5 nM (active),17.5 nM (active),17.5 nM (active),35.5 nM (active),17.5 nM (active),17.5 nM (active),17.5 nM (active),< 0.1 nM (active),–,–
CC1=CCCC2C1(C)CCC(C)C2(C)Cc1cc(O)ccc1O (centres undefined),11900 nM (inactive),1220 nM (inactive),7600 nM (inactive),5620 nM (inactive),6270 nM (inactive),8590 nM (inactive),5750 nM (inactive),8730 nM,4810 nM (inactive),4910 nM (inactive),4440 nM (inactive),1560 nM (inactive),9160 nM (inactive),18700 nM (inactive),7660 nM (inactive),2430 nM (inactive),14800 nM (inactive),7240 nM (inactive),5220 nM (inactive),5790 nM (inactive)
CN(C)CCN1C(=O)c2cccc3cc(N)cc(c23)C1=O [AMONAFIDE],718 nM (active),2240 nM (inactive),4060 nM (inactive),1870 nM (inactive),5940 nM (inactive),2480 nM (inactive),2010 nM (inactive),2600 nM,3230 nM (inactive),2070 nM (inactive),3910 nM (inactive),1910 nM (inactive),2900 nM (inactive),3300 nM (inactive),5330 nM (inactive),804 nM (active),1550 nM (inactive),2200 nM (inactive),4010 nM (inactive),3230 nM (inactive)
C[C@H](N)C(=O)N[C@@H]1[C@H]2C(=C(O)C[C@@H](O)[C@@H]2O)C(=O)O[C@]1(C)C(Cl)Cl [BACTOBOLIN],176 nM (active),–,170 nM (active),146 nM (active),207 nM (active),164 nM (active),232 nM (active),597 nM,–,327 nM (active),183 nM (active),–,129 nM (active),155 nM (active),185 nM (active),–,105 nM (active),65.5 nM (active),165 nM (active),111 nM (active)
